Assay results published in patent US20170157000A1, “COSMETIC PRODUCT WITH LIPOSOMAL GROWTH FACTORS” (DERMOPARTNERS, S.L., priority 2014, published 2017).

Legend:
[1] = system: human keratinocytes (HaCaT); assay: MTT cell proliferation assay in human keratinocytes; type: cell-based; details: 72 hours
Excerpt: (§1) This assay is based on metabolic reduction of bromide 3-(4,5-dimethylthiazol-2-yl)-2,5-diphenyltetrazolium (MTT) carried out by the mitochondrial succinate dehydrogenase enzyme in a blue colored compound (formazan), allowing the mitochondrial functionality of the treated cells to be determined. This method has been very widely used to measure cell survival and proliferation. The quantity of live cells is proportional to the quantity of formazan produced. This method was developed by Mosmann in 1983, modified in 1986 by Francois Denizot and Rita Lang. • 1. Using trypsin, separate the cells and re-suspend them in supplemented culture medium (10% of bovine fetal serum and antibiotic). • 2. Determine the number of cells required per well using a Neubauer camera (HaCaT: 5,000 cells/96 well, 30,000 cells/24 well; HSF: 4,000 cells/96 well, 30,000 cells/24 well. • 3. Incubate at 37° C. and 5% of CO2 for 24 hours to allow for the adherence thereof. • 4. Prepare the mixtures of free and liposomated factor at the indicated concentrations, remove the medium and add the mixtures. • 5. Incubate at 37° C. and 5% of CO2 for 72 hours. • 6. Add MTT (1.9 mg/ml) in PBS solution (25 μl total) over the medium • 7. Incubate for 3 hours at 37° C. to allow for the formation of formazan crystals. • 8. Then remove the supernatant and add 100 μl of DMSO. • 9. Incubate for 30 minutes at 37° C. to allow for the formazan crystals to dissolve • 10. The optical density reading (OD) is carried out in a spectrophotometer at a wavelength of 570 nm. • The viability percentage is obtained in the following manner: % viability—DO cells treated×100/DO control cells

[2] = system: human fibroblasts (HSF); assay: MTT cell proliferation assay in human fibroblasts; type: cell-based; details: 72 hours
Excerpt: as §1

[3] = system: human keratinocytes (HaCaT); assay: Wound healing assay (cell migration) in human keratinocytes; type: cell-based; details: 1 ng/ml; for wound closed more quickly than in the control cells: at 24 hours of treatment; for wound closure: at 48 hours
Excerpt: (§2) The objective of the wound healing assay is the study of cell migration. It is based on observing the behavior of a confluent cell monolayer on which a hole or wound has been previously made. The cells at the border of the hole move towards the opening until new cell-cell contacts are established, thus closing the wound.
(§3) The basic steps involve creating the wound or cell free area on the cell monolayer, the capture of images periodically during the experiment and the comparison of all the images to determine the velocity of cell migration.
• 1. Cultivate the cells until confluence (100% approx.) in plates of 6 wells (HaCaT: 500,000 cells/6 well; HSF: 500,000 cells/6 well) • 2. Incubate at 37° C. and 5% of CO2 for 24 hours. • 3. Scaling of the wounds (2 wounds per horizontal trajectory well using yellow sterile points (P200). They are dragged along the monolayer with an angle of inclination of 30 degrees (not perpendicular to the plate) and guided with a previously marked section. Mark three points for taking measurements. • 4. Leave to rest for 15 minutes before adding the treatment. • 5. Prepare the mixtures of free and liposomated factors at a concentration of 1 ng/ml, the medium is removed and add the mixtures. • 6. Incubate at 37° C. and 5% of CO2 for 72 hours. • 7. Take measurements at the times 0, 24, 48 and 72 hours.
The percentage of migration is obtained in the following manner:
(§4) % migration=(time measured 0−time measured X/time measured 0)*100

[4] = system: human fibroblasts (HSF); assay: Wound healing assay (cell migration) in human fibroblasts; type: cell-based; details: 1 ng/ml
Excerpt: as §2, §3
• 1. Cultivate the cells until confluence (100% approx.) in plates of 6 wells (HaCaT: 500,000 cells/6 well; HSF: 500,000 cells/6 well) • 2. Incubate at 37° C. and 5% of CO2 for 24 hours. • 3. […]
as §4

[5] = system: transcripts of the gene of the elastin; assay: Induction of elastin synthesis by quantitative PCR in keratinocytes; type: cell-based, human; details: control = value 1, dose dependent, 72 hours
Excerpt: (§5) PCR in real time or quantitative PCR is a variation of standard PCR used for quantifying DNA or messenger RNA (mRNA) of a sample. Using specific sequence primers, it is possible to determine the number of copies or the relative quantity of a determined DNA or RNA sequence.
(§6) When PCR in real time is combined with a retro-transcription or RT reaction (RTPCR), the mRNA quantity of a sample may be determined by means of a relative quantification. Said quantification is termed relative if the relative quantity or ratio of mRNA of a specific gene is compared with respect to the mRNA quantity of a constitutive gene (endogenous control, GAPDH in this case) among different samples. This is what is termed as normalization of the specific gene expression or normalizing with respect to the different total concentration of RNA of the samples since if the quantity of endogenous control varies it is due to changes in the total RNA quantity used in the synthesis of cDNA, not to changes in its expression. For the quantification, the quantity of amplicon produced is measured in each cycle of PCR. The quantification of the product is produced by means of the addition of fluorophores which join to the amplicon in a quantitative manner such that the greater the product, the greater the fluorescence that will be emitted. […]

[6] = system: transcripts of the gene of the elastin; assay: Induction of elastin synthesis by quantitative PCR in fibroblasts; type: cell-based, human; details: control = value 1, dose dependent, 72 hours
Excerpt: as §5, §6

[7] = system: TNFa transcripts; assay: Anti-inflammatory effect by quantitative PCR after LPS, TNFa transcripts; type: cell-based, human; details: cells with prior inflammation induced with 200 ng/ml LPS for three hours, dose dependent
Excerpt: as §5, §6

[8] = system: IL6 transcripts; assay: Anti-inflammatory effect by quantitative PCR after LPS, IL6 transcripts; type: cell-based, human; details: cells with prior inflammation induced with 200 ng/ml LPS for three hours, dose dependent
Excerpt: as §5, §6

[9] = concentrations greater than 1 ng/ml
[10] = low concentrations 0.01 ng/ml-0.5 ng/ml, untreated cells = 100% proliferation

Molecule	cell proliferation above the untreated cells [1, 9]	cell proliferation (untreated cells = 100%) ([2]; concentration not given)	cell proliferation (untreated cells = 100%) [2, 9]	wound closed more quickly than in the control cells [3] [%]	wound closure [3]	repair velocity of the wound versus control cells [4]	synthesis of elastin (elastin gene transcripts) with respect to the control cells [5]	synthesis of elastin (elastin gene transcripts) with respect to the control cells [6]	transcript levels of TNFa [7]	transcript levels of IL6 [8]	cell proliferation above the untreated cells [1, 10] [%]	cell proliferation above the untreated cells [2, 9]	cell proliferation above the untreated cells [2, 10] [%]	repair velocity of the wound, more quickly with respect to the control [4] [%]	cell proliferation above the untreated cells ([2]; concentration of 0.5 ng/ml) [%]
Nicotiana benthamiana Sh-Polypeptide-7 [HGH free factor]	around 20%	around 100%	around 100%	40	completely closed	hardly any difference	increase in the synthesis of elastin	increase in the synthesis of elastin	decrease	decrease	–	–	–	–	–
Nicotiana benthamiana Sh-Polypeptide-45 [GM-CSF free factor]	around 20%	–	–	13	completely closed	–	increase in the synthesis of elastin	increase in the synthesis of elastin	decrease	decrease	20	around 60%	100	20	–
follistatin (protein, UniProt P19883 30-344, looked up, growth factor follistatin analyzed in free form) Follistatin: GNCWLRQAKNGRCQVLYKTELSKEECCSTGRLSTSWTEEDVNDNTLFKWMIFNGGAPNCIPCKETCENVDCGPGKKCRMNKKNKPRCVCAPDCSNITWKGPVCGLDGKTYRNECALLKARCKEQPELEVQYQGRCKKTCRDVFCPGSSTCVVDQTNNAYCVTCNRICPEPASSEQYLCGNDGVTYSSACHLRKATCLLGRSIGLAYEGKCIKAKSCEDIQCTGGKKCLWDFKVGRGRCSLCDELCPDSKSDEPVCASDNATYASECAMKEAACSSGVLLEVKHSGSCNSISEDTEEEEEDEDQDYSFPISSILEW	–	–	–	–	–	–	–	–	–	–	–	maintains cell proliferation around the control	–	–	40
